melting point: 165 to 166 °C
Structure (SMILES): COCCNc1cc2ncc(C#N)c(Nc3cc(OC)c(Cl)cc3Cl)c2cc1OC [Example 56, 4-[(2,4-Dichloro-5-methoxyphenyl)amino]-6-methoxy-7-[(2-methoxyethyl)amino]quinoline-3-carbonitrile]

Reference: patent publication US6780996B2, “Process for the preparation of 7-substituted-3 quinolinecarbonitriles” (Wyeth Holdings Corporation, priority 2002, dated 2004)
